Where “and” joins values, the source holds several entries; their conditions need not be identical. Equal entries are not always repeated.
Columns and labels:
Type in all cases: in vivo, human
TNFα mRNA = assay: RT-PCR of TNFα mRNA in tape-stripped psoriatic lesions during Enbrel treatment; settings: week 8 of treatment
Method: (§1) Patients were treated with Enbrel™ (Etanercept) over a period of months. Both before treatment commenced (week 0) and at various time points during treatment, a lesion was tape stripped using the synthetic rubber-based adhesive MA70 (Adhesives Research) on a polyurethane film. Adhesive strips were manufactured as circles of 17 mm diameter. Skin sites were sequentially stripped with 4 individual tapes, with each tape applied and removed once. The RNA isolated from the adherent cells on all 4 tapes (from one site) was pooled into one sample. Quantitation was by quantitative RT-PCR using the comparative method with β-actin mRNA as the internal normalizing mRNA standard and calibration achieved by using population average values for ΔCt in uninvolved skin of psoriatic subjects (Table 1).

IFNγ mRNA = assay: RT-PCR of IFNγ mRNA in tape-stripped psoriatic lesions during Enbrel treatment; settings: week 8 of treatment
Method: as §1

psoriasis = assay: Clinical assessment of psoriasis (NPF Score) during Enbrel treatment; design: NPF Score: scale not given here
Method: as §1
Rather than calibrate the lesion samples to uninvolved skin of each patient, we have chosen to calibrate to population average values to gain a fold-change relative to non-psoriatic skin. The results of calibrating to each patient's uninvolved skin values were virtually identical (data not shown). […] Thus, positive changes in ΔCt values of these specific mRNAs are negatively correlated with the change from baseline at week 8 in NPF scores. […] In order to assess the significance this observation, the AC, and NPF data in Table 10 was analyzed.

IL-12B mRNA = assay: RT-PCR of IL-12B mRNA in tape-stripped psoriatic lesions during Enbrel treatment; settings: week 8 of treatment
Method: as §1

GAPDH mRNA = assay: RT-PCR of GAPDH mRNA in tape-stripped psoriatic lesions during Enbrel treatment; settings: week 8 of treatment
Method: as §1

IL-23A mRNA = assay: RT-PCR of IL-23A mRNA in tape-stripped psoriatic lesions during Enbrel treatment; settings: week 8 of treatment
Method: as §1

[1] = psoriatic lesion, tape-harvested RNA, relative to β-actin mRNA, one value per patient (P2-P7)

Enbrel was tested, and the “Fold Change (Pop-UIS), TNFα mRNA” value (TNFα mRNA; TNFα/β-actin mRNA ratio in lesion relative to population average of uninvolved skin, per patient) was 10.06 fold and 16.56 fold and 5.66 fold and 9.00 fold and 11.47 fold and 17.27 fold, the “ΔCt (Lesion), TNFα mRNA” value (TNFα mRNA; [1]) was 4.99 and 4.27 and 5.82 and 5.15 and 4.8 and 4.21 and the “Fold Change (Pop-UIS), INFγ mRNA” value (IFNγ mRNA; INFγ/β-actin mRNA ratio in lesion relative to population average of uninvolved skin, per patient) was 0.59 fold and 48.17 fold and 1.49 fold and 8.17 fold and 2.58 fold and 3.25 fold. For the same substance, the “ΔCt (Lesion), INFγ mRNA” value (IFNγ mRNA; [1]) was 11.27 and 4.91 and 9.92 and 7.47 and 9.13 and 8.8, the “NPF Score” value (psoriasis; National Psoriasis Foundation Score at week 8 of treatment, one value per patient (P2-P7)) was 10.7 (5×) and 10.3 (5×) and 16.7 (5×) and 18.7 (5×) and 11.7 (5×) and 12 (5×) and the “change in NPF score from baseline to week 8” value (psoriasis; psoriatic patients, 8 weeks of treatment, negative indicates improvement in disease) was “negative”. The “Fold Change (Pop-UIS), IL-12B mRNA” value (IL-12B mRNA; IL-12B/β-actin mRNA ratio in lesion relative to population average of uninvolved skin, per patient) was 0.51 fold and 9.45 fold and 5.31 fold and 11.24 fold and 27.86 fold and 105.42 fold, the “ΔCt (Lesion), IL-12B mRNA” value (IL-12B mRNA; [1]) was 12.48 and 7.35 and 9.09 and >8.01 and 6.7 and 4.78 and the “Fold Change (Pop-UIS), GAPDH mRNA” value (GAPDH mRNA; GAPDH/β-actin mRNA ratio in lesion relative to population average of uninvolved skin, per patient) was 2.04 fold and 1.69 fold and 1.59 fold and 1.40 fold and 1.77 fold and 2.07 fold. The “ΔCt (Lesion), GAPDH mRNA” value (GAPDH mRNA; [1]) was 1.04 and 1.31 and 1.4 and 1.58 and 1.25 and 1.02, the “Fold Change (Pop-UIS), IL-23A mRNA” value (IL-23A mRNA; IL-23A/β-actin mRNA ratio in lesion relative to population average of uninvolved skin, per patient) was 5.43 fold and 24.25 fold and 5.70 fold and 9.99 fold and 17.03 fold and 18.64 fold and the “ΔCt (Lesion), IL-23A mRNA” value (IL-23A mRNA; [1]) was 6.59 and 4.85 and 6.52 and 5.71 and 4.94 and 4.81.
